Measurements: patent US20220023289A1, “Application Of Pyrroloquinoline Quinone In Preparation Of Medicament Used For Preventing And Treating Acute Altitude Sickness And Acute Altitude Hypoxia Injury” (priority 2018, published 2022)

Key:
[1] = tested on: rats exposed to acute altitude hypoxia; assay: Myocardial enzyme activity in rats exposed to acute altitude hypoxia; type: in vivo, Wistar rat; conditions: male rats, hypoxia
Protocol: (§2) Select healthy Wistar rats weight 160-200 g, half female and half male. After feeding for 3 days, these Wistar rats are randomly divided into ten groups according to their body weight, each group has 16±2 rats. The groups are divided as follows: five groups of the hypoxic exposure drug test group, respectively, are given 0.91 mg/kg, 1.83 mg/kg, 3.66 mg/kg, 7.31 mg/kg, and 14.63 mg/kg drugs. […] After continuous intragastric administration for 7 days, the animals in the hypoxic exposure group are simultaneously put into the decompression and hypoxia compound experimental chamber, the hatch is closed, and the pressure is reduced at a speed of 10 m/s. After being raised to an altitude of 6000 m and maintained for 8 hours, the speed in 10 m/s drops is reduced to normal altitude, open the hatch, and then take out the animal, collect blood samples (after standing for 1 hour, the supernatant is centrifuged and stored at −20° C.), and liver tissue samples. Detection indicator includes body weight, serum blood glucose, ATP, lactic acid, endothelin, nitric oxide, SOD, CO, MDA related to oxidative stress, and total protein, albumin, triglycerides, total cholesterol, high-density lipoprotein cholesterol, low-density lipoprotein cholesterol, glutamic pyruvic transaminase, total bilirubin, gluamic oxalacetic transaminase, serum urea nitrogen, creatinine, uric acid, lactate dehydrogenase, creatine kinase, α-hydroxybutyrate dehydrogenase; liver ATP, hepatic glycogen. Except that the formal oxygen control animal group is not put into the decompression and hypoxia compound experimental chamber, other experimental conditions and detection indicators are the same.
Measure blood glucose, total protein, albumin, triglycerides, total cholesterol, high-density lipoprotein cholesterol, low-density lipoprotein cholesterol, glutamic-pyruvic transaminase, total bilirubin, glutamic oxalacetic transaminase, serum urea nitrogen, creatinine, uric acid, lactate dehydrogenase, creatine kinase, α-hydroxybutyrate dehydrogenase, blood homocysteine by using an automatic blood biochemical analyzer.

[2] = tested on: rats with acute altitude hypoxia injury; assay: Serum energy metabolism indexes (ATP, lactic acid) in rats with acute altitude hypoxia injury; type: in vivo, Wistar rat
Protocol: (§1) Determination of adenosine triphosphate (ATP): Perform enzyme-linked immunosorbent assay by double-antibody one-step sandwich method. To the coated microwells pre-coated with rat adenosine triphosphate (ATP) capture antibody, add in sequence the specimens, standard, and HRP-labeled detection antibody, and then incubate and wash thoroughly. Use a substrate TMB for color development, TMB is converted into blue under the catalysis of peroxidase and converted into the final yellow color under the action of acid. The color intensity is positively correlated with the rat adenosine triphosphate (ATP) in the sample. […] Determination of lactic acid (LC): Perform enzyme-linked immunosorbent assay by double-antibody one-step sandwich method. To the coated microwells pre-coated with rat lactic acid (LC) capture antibody, add in sequence the specimens, standard, and HRP-labeled detection antibody, and then incubate and wash thoroughly. Use a substrate TMB for color development. TMB is converted into blue under the catalysis of peroxidase and converted into the final yellow color under the action of acid. The color intensity is positively correlated with the rat lactic acid (LC) in the sample.

[3] = tested on: rats exposed to acute altitude hypoxia; assay: Liver ATP and glycogen in rats exposed to acute altitude hypoxia; type: in vivo, Wistar rat
Protocol: as §1, with “liver glycogen (GC):” for “lactic acid (LC):”, “liver glycogen (GC)” for “lactic acid (LC)”, “development,” for “development.”

[4] = Body weight of mice before closed hypoxia tolerance test
[5] = Rat body weight before the acute decompression hypoxia experiment (intragastric 7 days)
Protocol: as §2

[6] = female rats, hypoxia, 0.91 mg/kg
[7] = female rats, hypoxia, 1.83 mg/kg
[8] = female rats, hypoxia, 3.66 mg/kg
[9] = female rats, hypoxia, 7.31 mg/kg
[10] = female rats, hypoxia, 14.63 mg/kg
[11] = female rats, normoxia, 3.66 mg/kg
[12] = male rats, hypoxia, 14.63 mg/kg

O=C(O)c1cc(C(=O)O)c2c(n1)C(=O)C(=O)c1cc(C(=O)O)[nH]c1-2 [PQQ, pyrroloquinoline quinone]
α-hydroxybutyrate dehydrogenase ([1]; 1.83 mg/kg): 286.75 ± 260.98 U/L | Creatine Kinase ([1]; 3.66 mg/kg): 544.50 ± 243.30 U/L | Lactate dehydrogenase ([1]; 3.66 mg/kg): 588.13 ± 360.36 U/L | α-hydroxybutyrate dehydrogenase ([1]; 3.66 mg/kg): 256.63 ± 154.55 U/L | Creatine Kinase ([1]; 7.31 mg/kg): 640.25 ± 333.16 U/L | Lactate dehydrogenase ([1]; 7.31 mg/kg): 767.38 ± 546.88 U/L | α-hydroxybutyrate dehydrogenase ([1]; 7.31 mg/kg): 325.63 ± 238.56 U/L | Creatine Kinase ([1]; 14.63 mg/kg): 510.89 ± 240.61 U/L | Lactate dehydrogenase ([1]; 14.63 mg/kg): 510.44 ± 275.48 U/L | α-hydroxybutyrate dehydrogenase ([1]; 14.63 mg/kg): 218.67 ± 118.08 U/L | serum Lactic acid [2, 6]: 222.06 ± 12.56 ng/L | serum Lactic acid [2, 7]: 221.04 ± 14.36 ng/L | serum Lactic acid [2, 8]: 242.8 ± 8.13 ng/L | serum Lactic acid [2, 9]: 196.41 ± 11.86 ng/L | serum Lactic acid [2, 10]: 173.09 ± 24.20 ng/L | effect on serum ATP content ([2]; female rats, normoxia): no significant effect | effect on serum lactic acid content ([2]; female rats, normoxia): reducing | serum Lactic acid [2, 11]: 116.73 ± 13.32 ng/L | effect on serum ATP and lactic acid content ([2]; hypoxia exposed female rats): increasing | effect on serum ATP and lactic acid content ([2]; male rats): no significant effects | serum Lactic acid ([2]; male rats, hypoxia, 0.91 mg/kg): 188.70 ± 29.68 ng/L | serum Lactic acid ([2]; male rats, hypoxia, 1.83 mg/kg): 177.33 ± 19.55 ng/L | serum Lactic acid ([2]; male rats, hypoxia, 3.66 mg/kg): 189.12 ± 24.64 ng/L | serum Lactic acid ([2]; male rats, hypoxia, 7.31 mg/kg): 172.64 ± 12.25 ng/L | serum Lactic acid [2, 12]: 180.81 ± 24.64 ng/L | effect on liver ATP and glycogen content ([3]; female rats, after hypoxia exposure and normoxia): no significant effects | liver Glycogen [3, 6]: 2.52 ± 0.36 ng/mL | liver ATP [3, 7]: 1.58 ± 0.27 µg/mL | liver Glycogen [3, 7]: 2.89 ± 0.57 ng/mL | liver ATP [3, 8]: 1.64 ± 0.37 µg/mL | liver Glycogen [3, 8]: 2.84 ± 0.67 ng/mL | liver Glycogen [3, 9]: 3.07 ± 0.19 ng/mL | liver Glycogen [3, 10]: 3.62 ± 0.38 ng/mL | liver ATP [3, 11]: 1.62 ± 0.13 µg/mL | liver Glycogen [3, 11]: 2.89 ± 0.28 ng/mL | effect on liver ATP and glycogen content ([3]; male rats): can increase | liver Glycogen ([3]; male rats, hypoxia, 0.91 mg/kg): 2.41 ± 0.41 ng/mL | liver Glycogen ([3]; male rats, hypoxia, 1.83 mg/kg): 2.23 ± 0.17 ng/mL | liver Glycogen ([3]; male rats, hypoxia, 3.66 mg/kg): 2.70 ± 0.84 ng/mL | liver Glycogen ([3]; male rats, hypoxia, 7.31 mg/kg): 2.86 ± 0.43 ng/mL | liver Glycogen [3, 12]: 2.55 ± 0.28 ng/mL | weight 1 day ([4]; female mice, 1.32 mg/kg): 20.31 ± 1.29 g | weight 3 days ([4]; female mice, 1.32 mg/kg): 22.33 ± 1.91 g | weight 1 day ([4]; female mice, 2.64 mg/kg): 19.83 ± 1.19 g | weight 3 days ([4]; female mice, 2.64 mg/kg): 22.22 ± 1.28 g | weight 1 day ([4]; female mice, 5.28 mg/kg): 20.58 ± 1.07 g | weight 3 days ([4]; female mice, 5.28 mg/kg): 22.52 ± 1.71 g | weight 1 day ([4]; female mice, 10.56 mg/kg): 20.13 ± 1.64 g | weight 3 days ([4]; female mice, 10.56 mg/kg): 21.92 ± 1.83 g | weight 1 day ([4]; female mice, 21.12 mg/kg): 20.19 ± 1.34 g | weight 3 days ([4]; female mice, 21.12 mg/kg): 22.49 ± 1.77 g | weight 1 day ([4]; male mice, 1.32 mg/kg): 15.46 ± 1.04 g | weight 3 days ([4]; male mice, 1.32 mg/kg): 17.74 ± 1.30 g | weight 1 day ([4]; male mice, 2.64 mg/kg): 15.40 ± 1.03 g | weight 3 days ([4]; male mice, 2.64 mg/kg): 17.46 ± 1.29 g | weight 1 day ([4]; male mice, 5.28 mg/kg): 15.51 ± 1.11 g | weight 3 days ([4]; male mice, 5.28 mg/kg): 17.41 ± 1.23 g | weight 1 day ([4]; male mice, 10.56 mg/kg): 15.32 ± 1.10 g | weight 3 days ([4]; male mice, 10.56 mg/kg): 16.20 ± 1.03 g | weight 1 day ([4]; male mice, 21.12 mg/kg): 15.45 ± 0.97 g | weight 3 days ([4]; male mice, 21.12 mg/kg): 17.54 ± 1.14 g | rat body weight Female 1 day ([5]; 0.91 mg/kg): 154.4 ± 7.2 g | rat body weight Female 7 days ([5]; 0.91 mg/kg): 169.6 ± 3.3 g | rat body weight Male 1 day ([5]; 0.91 mg/kg): 173.4 ± 7.4 g | rat body weight Male 7 days ([5]; 0.91 mg/kg): 196.4 ± 5.7 g | rat body weight Female 1 day ([5]; 1.83 mg/kg): 153.6 ± 6.9 g | rat body weight Female 7 days ([5]; 1.83 mg/kg): 167.4 ± 6.7 g | rat body weight Male 1 day ([5]; 1.83 mg/kg): 173.6 ± 5.9 g | rat body weight Male 7 days ([5]; 1.83 mg/kg): 206.8 ± 6.2 g | rat body weight Female 1 day ([5]; 3.66 mg/kg): 154.1 ± 8.6 g | rat body weight Female 7 days ([5]; 3.66 mg/kg): 172.1 ± 2.2 g | rat body weight Male 1 day ([5]; 3.66 mg/kg): 170.8 ± 10.8 g | rat body weight Male 7 days ([5]; 3.66 mg/kg): 198.3 ± 9.0 g | rat body weight Female 1 day ([5]; 7.31 mg/kg): 154.3 ± 7.7 g | rat body weight Female 7 days ([5]; 7.31 mg/kg): 171.1 ± 8.6 g | rat body weight Male 1 day ([5]; 7.31 mg/kg): 169.9 ± 9.9 g | rat body weight Male 7 days ([5]; 7.31 mg/kg): 198.6 ± 11.6 g | rat body weight Female 1 day ([5]; 14.63 mg/kg): 152.7 ± 7.2 g | rat body weight Female 7 days ([5]; 14.63 mg/kg): 166.0 ± 4.1 g | rat body weight Male 1 day ([5]; 14.63 mg/kg): 171.6 ± 10 g | rat body weight Male 7 days ([5]; 14.63 mg/kg): 199.6 ± 12.5 g | effect on body weight ([5]; female rats, 7 days): did not affect | effect on weight ([5]; male rats, 7 days): did not affect
